Key:
[1] = molecular target: T1, human VMAT1 transporter (Homo sapiens, UniProt P54219); assay: uptake in cells expressing VMAT1; format: cell-based; conditions: for inhibitory activity on uptake through VMAT1: concentrations up to 10 μM
T1 construct: expressed in transfected cells
T1 sequence (P54219 1-525): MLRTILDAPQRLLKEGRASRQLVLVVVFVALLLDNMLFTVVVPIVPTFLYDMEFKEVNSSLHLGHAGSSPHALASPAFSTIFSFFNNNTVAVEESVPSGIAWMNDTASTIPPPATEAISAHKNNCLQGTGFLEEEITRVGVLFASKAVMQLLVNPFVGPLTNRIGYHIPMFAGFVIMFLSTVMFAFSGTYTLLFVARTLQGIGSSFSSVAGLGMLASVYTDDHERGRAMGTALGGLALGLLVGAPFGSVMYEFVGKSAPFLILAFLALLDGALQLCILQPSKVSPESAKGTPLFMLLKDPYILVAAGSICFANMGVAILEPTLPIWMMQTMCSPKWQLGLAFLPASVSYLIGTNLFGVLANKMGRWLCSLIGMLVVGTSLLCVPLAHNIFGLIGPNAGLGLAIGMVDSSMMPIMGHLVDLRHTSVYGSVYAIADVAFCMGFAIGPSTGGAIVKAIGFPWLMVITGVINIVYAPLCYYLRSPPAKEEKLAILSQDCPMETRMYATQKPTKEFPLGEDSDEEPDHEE
Experimental: None of the TBZ or VBZ metabolites had any affinity for the monoamine transporters DAT, SERT or NET. To complete the selectivity profile for VMAT2, the functional activity for the human VMAT1 transporter of these compounds was tested in cells expressing VMAT1.

[2] = plasma concentrations of circulating metabolites; format: in vivo; conditions: after VBZ
[3] = ptosis, in vivo surrogate measure
[4] = case reports of hypersensitivity and dermatological reactions; format: in vivo, human
Text: A total of 17 cases of hypersensitivity reaction and/or dermatological findings and evidence for possible causal relationship with VBZ have been reported either spontaneously (6) or after solicitation (11). Of these 17 cases, 14 cases had both hypersensitivity reaction with dermatological findings (5 were serious and 9 were non-serious).
In these 14 cases, there was a reasonable temporal relationship between the initiation of the drug and the onset of events. In 1 case, both dechallenge and rechallenge was positive. In 2 cases, the events worsened when the drug was continued and the events resolved on discontinuation of VBZ. In 3 cases, dechallenge was considered as positive. In 7 cases, the event resolved or was resolving following discontinuation of drug and receiving appropriate treatment, implying a causal association. Additionally, among these 7 cases, there was 1 case in which the event re-occurred on readministration of the drug. In the remaining 1 case, the events started immediately after starting VBZ, the subject continued taking VBZ and the event continued; therefore, a causal association between the drug and the event could not be ruled out.
Of the 17 cases, there were 2 cases in which the patients experienced hypersensitivity reaction with evidence for a possible causal relationship with VBZ, but without dermatological findings. Both these cases were non-serious. In 1 case, dechallenge was positive and in another case, the event re-occurred with their second dose of drug, implying a causal association between the drug and the events.
Of the 17 cases, there was 1 case in which the patient experienced only dermatological findings with evidence for a possible causal relationship to VBZ, but without evidence of other hypersensitivity reaction. This case was non-serious and dechallenge was positive in this case. In view of the information reported in these 17 cases there appears to be a possible causal relationship between the events and administration of VBZ. […] 2017.
Based on the case reports received through 10 Oct.

[5] = prolactin release, in vivo surrogate measure

Row | Structure (SMILES) | effect on uptake through VMAT1 [1] | inhibitory activity on uptake through VMAT1 [1] | plasma half-life of metabolite [2] | ptosis [3] | non-serious cases with hypersensitivity reaction and dermatological findings ([4]; of the 14 cases) [cases] | serious cases with hypersensitivity reaction and dermatological findings ([4]; of the 14 cases) [cases] | cases with both hypersensitivity reaction with dermatological findings ([4]; of the 17 cases) [cases] | cases of hypersensitivity reaction without dermatological findings ([4]; of the 17 cases, non-serious) [cases] | cases with only dermatological findings ([4]; of the 17 cases, non-serious) [case] | cases of hypersensitivity reaction and/or dermatological findings with evidence for possible causal relationship ([4]; reported spontaneously (6) or after solicitation (11), through 10 Oct. 2017) [cases] | severe hypersensitivity or dermatological reactions suggesting Stevens Johnson Syndrome, Toxic Epidermal Necrolysis, or Drug Rash with Eosinophilia and Systemic Symptoms ([4]; through 10 Oct. 2017) | serum prolactin levels [5]
1 | COC(=O)[C@H]1[C@H]2C[C@@H]3c4[nH]c5cc(OC)ccc5c4CCN3C[C@H]2C[C@@H](OC(=O)c2cc(OC)c(OC)c(OC)c2)[C@@H]1OC [reserpine, reference compound] | substantially inhibited uptake through VMAT1 | – | – | – | – | – | – | – | – | – | – | –
2 | COc1cc2c(cc1OC)[C@H]1C[C@@H](OC(=O)[C@@H](N)C(C)(C)O)[C@H](CC(C)C)CN1CC2 [NBI-136110] | no significant effect on the uptake of monoamines through VMAT1 | no significant inhibitory activity | half-lives similar to VBZ | – | – | – | – | – | – | – | – | –
3 | COc1cc2c(cc1OC)[C@H]1C[C@@H](OC(=O)[C@@H](N)C(C)C)[C@H](CC(C)C)CN1CC2 [Valbenazine, (S)-2-amino-3-methyl-butyric acid (2R, 3R,11bR)-3-isobutyl-9,10-dimethoxy-1,3,4,6,7,11b-hexahydro-2H-pyrido[2,1-a]isoquinolin-2-yl ester] | no significant effect on the uptake of monoamines through VMAT1 | no significant inhibitory activity | – | induced ptosis in an equivalent manner | 9 | 5 | 14 | 2 | 1 | 17 | no cases | –
4 | COc1cc2c(cc1OC)C1CC(=O)C(CC(C)C)CN1CC2 (stereo not shown) [TBZ, Tetrabenazine, reference compound] | no significant effect on the uptake of monoamines through VMAT1 | no significant inhibitory activity | – | induced ptosis in an equivalent manner | – | – | – | – | – | – | – | –
5 | COc1cc2c(cc1OC)[C@H]1C[C@@H](O)[C@H](CC(C)C)CN1CC2 [R,R,R-DHTBZ, (2R, 3R,11bR)-3-isobutyl-9,10-dimethoxy-1,3,4,6,7,11b-hexahydro-2H-pyrido[2,1-a]isoquinolin-2-ol] | no significant effect on the uptake of monoamines through VMAT1 | no significant inhibitory activity | half-lives similar to VBZ | induced ptosis in an equivalent manner | – | – | – | – | – | – | – | induced a similar increase in serum prolactin levels as TBZ
